In PubChem BioAssay AID1963969 (Molecular Pharmacology Branch, DTP, NCI, 2024):

Test system: 817829-284-R-J1-PDC multi-cell spheroid viability
Experiment: Anticancer human tumor 817829-284-R-J1-PDC patient-derived colon adenocarcinoma cell line growth inhibition [PI3K]
Settings: for viability, T/C: stronger effect = lower value
In short: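 Stroma-containing spheroids: tumor line, pooled-donor HUVEC, hMSC. Treatments: targeted agents with PI3K inhibitors. Dosing: clinically relevant, half-log spacing, 10 microM ceiling without known Cmax. Read-out: cell viability.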

[1] = curve of first compound, second compound 0.00316 µM
[2] = curve of first compound, second compound 0.01 µM
[3] = curve of first compound, second compound 0.0316 µM
[4] = curve of first compound, second compound 0.1 µM
[5] = curve of first compound, second compound 0.316 µM
[6] = curve of first compound, second compound 1 µM
[7] = second compound 0.00316 µM, first compound 0.0316 µM
[8] = second compound 0.00316 µM, first compound 0.1 µM
[9] = second compound 0.00316 µM, first compound 0.316 µM
[10] = second compound 0.00316 µM, first compound 1 µM
[11] = second compound 0.01 µM, first compound 0.0316 µM
[12] = second compound 0.01 µM, first compound 0.1 µM
[13] = second compound 0.01 µM, first compound 0.316 µM
[14] = second compound 0.01 µM, first compound 1 µM
[15] = second compound 0.0316 µM, first compound 0.0316 µM
[16] = second compound 0.0316 µM, first compound 0.1 µM
[17] = second compound 0.0316 µM, first compound 0.316 µM
[18] = second compound 0.0316 µM, first compound 1 µM
[19] = second compound 0.1 µM, first compound 0.0316 µM
[20] = second compound 0.1 µM, first compound 0.1 µM
[21] = second compound 0.1 µM, first compound 0.316 µM
[22] = second compound 0.1 µM, first compound 1 µM
[23] = second compound 0.316 µM, first compound 0.0316 µM
[24] = second compound 0.316 µM, first compound 0.1 µM
[25] = second compound 0.316 µM, first compound 0.316 µM
[26] = second compound 0.316 µM, first compound 1 µM
[27] = second compound 1 µM, first compound 0.0316 µM
[28] = second compound 1 µM, first compound 0.1 µM
[29] = second compound 1 µM, first compound 0.316 µM
[30] = second compound 1 µM, first compound 1 µM
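Note: spheroids exposed to agents for seven days before readout.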
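Throughout, for viability, T/C: percent of vehicle DMSO control viability which is 100%.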

Structure (SMILES): CNC(=O)c1ccc(N2C(=S)N(c3ccc(C#N)c(C(F)(F)F)c3)C(=O)C2(C)C)cc1F + COc1c(OCCCN2CCOCC2)ccc2c3n(c(=NC(=O)c4cnc(N)nc4)nc12)CCN3
- IC50 [1]: > 10000 nM
- IC50 [2]: > 10000 nM
- IC50 [3]: 3040 nM
- IC50 [4]: < 31.6 nM
- IC50 [5]: < 31.6 nM
- IC50 [6]: < 31.6 nM
- viability, T/C [7]: 72.7%
- viability, T/C [8]: 107%
- viability, T/C [9]: 118%
- viability, T/C [10]: 110%
- viability, T/C (second compound 0.00316 µM, first compound 3.16 µM): 70.9%
- viability, T/C (second compound 0.00316 µM, first compound 10 µM): 55.9%
- viability, T/C [11]: 102%
- viability, T/C [12]: 107%
- viability, T/C [13]: 117%
- viability, T/C [14]: 58.2%
- viability, T/C (second compound 0.01 µM, first compound 3.16 µM): 81.3%
- viability, T/C (second compound 0.01 µM, first compound 10 µM): 55%
- viability, T/C [15]: 52.3%
- viability, T/C [16]: 61.2%
- viability, T/C [17]: 73.6%
- viability, T/C [18]: 105%
- viability, T/C (second compound 0.0316 µM, first compound 3.16 µM): 49.2%
- viability, T/C (second compound 0.0316 µM, first compound 10 µM): 27.3%
- viability, T/C [19]: 35.4%
- viability, T/C [20]: 38.6%
- viability, T/C [21]: 31.2%
- viability, T/C [22]: 36.3%
- viability, T/C (second compound 0.1 µM, first compound 3.16 µM): 31.5%
- viability, T/C (second compound 0.1 µM, first compound 10 µM): 21.7%
- viability, T/C [23]: 19.9%
- viability, T/C [24]: 23%
- viability, T/C [25]: 23.2%
- viability, T/C [26]: 18.5%
- viability, T/C (second compound 0.316 µM, first compound 3.16 µM): 19.1%
- viability, T/C (second compound 0.316 µM, first compound 10 µM): 17.7%
- viability, T/C [27]: 11.2%
- viability, T/C [28]: 12.2%
- viability, T/C [29]: 9.45%
- viability, T/C [30]: 13.1%
- viability, T/C (second compound 1 µM, first compound 3.16 µM): 11.1%
- viability, T/C (second compound 1 µM, first compound 10 µM): 9.44%

Structure (SMILES): CCN1CCN(Cc2ccc(Nc3ncc(F)c(-c4cc(F)c5nc(C)n(C(C)C)c5c4)n3)nc2)CC1 + COc1c(OCCCN2CCOCC2)ccc2c3n(c(=NC(=O)c4cnc(N)nc4)nc12)CCN3
- IC50 [1]: > 1000 nM
- IC50 [2]: > 1000 nM
- IC50 [3]: 57.5 nM
- IC50 [4]: < 3.16 nM
- IC50 [5]: < 3.16 nM
- IC50 [6]: < 3.16 nM
- viability, T/C (second compound 0.00316 µM, first compound 0.00316 µM): 113%
- viability, T/C (second compound 0.00316 µM, first compound 0.01 µM): 83.4%
- viability, T/C [7]: 72.7%
- viability, T/C [8]: 50.2%
- viability, T/C [9]: 50.7%
- viability, T/C [10]: 53.8%
- viability, T/C (second compound 0.01 µM, first compound 0.00316 µM): 75.4%
- viability, T/C (second compound 0.01 µM, first compound 0.01 µM): 60.3%
- viability, T/C [11]: 58.7%
- viability, T/C [12]: 58%
- viability, T/C [13]: 47.8%
- viability, T/C [14]: 50.4%
- viability, T/C (second compound 0.0316 µM, first compound 0.00316 µM): 56%
- viability, T/C (second compound 0.0316 µM, first compound 0.01 µM): 55.5%
- viability, T/C [15]: 73.6%
- viability, T/C [16]: 27.9%
- viability, T/C [17]: 41.4%
- viability, T/C [18]: 48.2%
- viability, T/C (second compound 0.1 µM, first compound 0.00316 µM): 36.2%
- viability, T/C (second compound 0.1 µM, first compound 0.01 µM): 32%
- viability, T/C [19]: 27.9%
- viability, T/C [20]: 21.1%
- viability, T/C [21]: 31.3%
- viability, T/C [22]: 38.5%
- viability, T/C (second compound 0.316 µM, first compound 0.00316 µM): 22%
- viability, T/C (second compound 0.316 µM, first compound 0.01 µM): 16%
- viability, T/C [23]: 21.6%
- viability, T/C [24]: 21.2%
- viability, T/C [25]: 34.1%
- viability, T/C [26]: 29.4%
- viability, T/C (second compound 1 µM, first compound 0.00316 µM): 9.7%
- viability, T/C (second compound 1 µM, first compound 0.01 µM): 9.65%
- viability, T/C [27]: 9.55%
- viability, T/C [28]: 12.1%
- viability, T/C [29]: 16.5%
- viability, T/C [30]: 21.9%

Structure (SMILES): CC(Cn1ccc(-c2ccc(C#N)c(Cl)c2)n1)NC(=O)c1cc(C(C)O)[nH]n1 (stereo not given)
- IC50 (curve of compound): > 10000 nM
